From publication PMC10832398 (Molecular cancer therapeutics, 2023)
Several values for one entry are separate records, joined by “and”; a condition that tells them apart may be missing. Equal entries are not always repeated.

Assays:
HS02 cells = assay: Combination matrix cell viability assay; assay type: cell-based, human
HS01 cells = assay: Combination matrix cell viability assay; assay type: cell-based, human
[1] = tested on: primary human vestibular schwannoma (VS) cells; assay: ApoTox-Glo viability in primary VS cells; assay type: cell-based; details: 96 hrs; omipalisib 16nM; dasatinib 200, 400, and 800nM
[2] = tested on: phospho-AKT, phospho-FAK, phospho-Src, EphA2, cyclin D1, p21 in HS01 cells; assay: Western blots of whole cell lysates of HS01 cells; assay type: cell-based, human; details: HS01, 24h
[3] = HS02, single drug within the combination matrix, 72h
[4] = HS01, single drug within the combination matrix, 72h
[5] = Homo sapiens, 72 h, HS02, single drug within the combination matrix
[6] = Homo sapiens, 72 h, HS01, single drug within the combination matrix

CN(c1ncccc1CNc1nc(Nc2ccc3c(c2)CC(=O)N3)ncc1C(F)(F)F)S(C)(=O)=O [PF-00562271]
GI50 (HS02 cells; [3]): 6.5 µM and 3.8 µM

CNC(=O)c1ccccc1Nc1nc(Nc2ccc(N3CCOCC3)cc2OC)ncc1Cl [TAE226]
GI50 (HS02 cells; [3]): 2.1 µM
GI50 (HS01 cells; [4]): 1 µM

COc1ncc(-c2ccc3nccc(-c4ccnnc4)c3c2)cc1NS(=O)(=O)c1ccc(F)cc1F [Omipalisib, omipalisib]
reduction in viability (mean fold change of all VS tumors) [1]: ≥ 20%
Cyclin D1 levels ([2]; 0.1 μM): reduced
p21 levels ([2]; 0.1 μM): not observed
Phospho-AKT (T308 and S473) decrease ([2]; omipalisib 4 and 16nM alone or with dasatinib 100 and 400nM): 91-99%
phosphorylated Src-Tyr527 levels compared to vehicle ([2]; omipalisib alone): increased
GI50 (HS01 cells; [4]): 0.02 µM
GI50 (HS01 cells; Homo sapiens, alone in HS01 cells): 0.05 to 0.08 µM
synergistic doses (HS01 cells; omipalisib/dasatinib matrix, Fig. 1A (HS01, HS02)): 39 to 156 nM

CNC(=O)c1ccccc1Nc1cc(Nc2ccc(N3CCOCC3)cc2OC)ncc1C(F)(F)F [PND-1186]
GI50 (HS02 cells; [5]): > 10 µM
GI50 (HS01 cells; [6]): > 10 µM

Cc1nc(Nc2ncc(C(=O)Nc3c(C)cccc3Cl)s2)cc(N2CCN(CCO)CC2)n1 [Dasatinib, dasatinib]
GI50 (HS02 cells; [5]): > 10 µM
phosphorylated FAK-Tyr576 and Src-Tyr527 ([2]; dasatinib 100 and 400nM alone or in combination): Dose-dependent decreases
GI50 (HS01 cells; [6]): > 10 µM

CCn1c(=O)c(-c2cc[nH]n2)cc2c(C)nc(N)nc21 [Voxtalisib]
GI50 (HS02 cells; [5]): > 10 µM
GI50 (HS01 cells; [6]): > 10 µM

Nc1cc(C(F)(F)F)c(-c2cc(N3CCOCC3)nc(N3CCOCC3)n2)cn1 [Buparlisib]
GI50 (HS02 cells; [5]): 4.9 µM
GI50 (HS01 cells; [6]): 4.3 µM

CS(=O)(=O)N1CCN(Cc2cc3nc(-c4cccc5[nH]ncc45)nc(N4CCOCC4)c3s2)CC1 [Pictilisib]
GI50 (HS02 cells; [5]): > 10 µM

CN(C)C1CCN(C(=O)c2ccc(NC(=O)Nc3ccc(-c4nc(N5CCOCC5)nc(N5CCOCC5)n4)cc3)cc2)CC1 [Gedatolisib]
GI50 (HS02 cells; Homo sapiens, 72 h): 0.09 µM
GI50 (HS01 cells; Homo sapiens, 72 h): 0.08 µM
